Measured values from ChEMBL document CHEMBL1141938 (Bioorg Med Chem Lett, 2005).

Experiments:
[1] = tested on: Human immunodeficiency virus; test: Antiviral activity in MT4 human T lymphoid cells infected with wild type NL4-3 HIV; assay type: functional; conditions: Human immunodeficiency virus 1, NL4-3, MT4; read-out: CIC95
[2] = tested on: Human immunodeficiency virus; test: Antiviral activity against mutant HIV isolate V-18C; assay type: functional; conditions: Human immunodeficiency virus 1, V-18C; read-out: CIC95
[3] = tested on: Human immunodeficiency virus; test: Antiviral activity against mutant HIV isolate Q-60C; assay type: functional; conditions: Human immunodeficiency virus 1, Q-60C; read-out: CIC95
[4] = tested on: Human immunodeficiency virus; test: Antiviral activity against 4X HIV strain; assay type: functional; conditions: Human immunodeficiency virus 1, 4X; read-out: CIC95
[5] = tested on: Human immunodeficiency virus; test: Antiviral activity against mutant HIV isolate K-60C; assay type: functional; conditions: Human immunodeficiency virus 1, K-60; read-out: CIC95
[6] = biological target: Human immunodeficiency virus type 1 protease (Human immunodeficiency virus 1, UniProt Q72874)
Description: Inhibitory activity against HIV protease

[7] = Cmax in rat at 2 mg/kg, po; assay type: ADME, organism-based; design: dose 2 mg/kg, route oral; conditions: in vivo
Cytochrome P450 3A4 = Cytochrome P450 3A4 (Homo sapiens, UniProt P08684); test: Inhibitory activity against CYP3A4; assay type: ADME
[8] = Plasma clearance in rat at 2 mg/kg, po; assay type: ADME, organism-based; design: dose 2 mg/kg, route oral
Rattus norvegicus [9] = test: AUC in rat at 2 mg/kg, po; assay type: ADME, organism-based, Plasma; design: dose 2 mg/kg, route oral; conditions: in vivo
Cytochrome P450 2C9 = Cytochrome P450 2C9 (Homo sapiens, UniProt P11712); test: Inhibitory activity against CYP2C9; assay type: ADME
[10] = Oral bioavailability in rat at 2 mg/kg, po; assay type: ADME, organism-based; conditions: in vivo
[11] = Half life in rat at 2 mg/kg, po; assay type: ADME, organism-based; design: dose 2 mg/kg, route oral; conditions: in vivo
Cytochrome P450 2D6 = Cytochrome P450 2D6 (Homo sapiens, UniProt P10635); test: Inhibitory activity against CYP2D6; assay type: ADME
[12] = Plasma clearance in dog at 10 mg/kg, po; assay type: ADME, organism-based, Canis lupus familiaris; design: dose 10 mg/kg, route oral
[13] = Cmax in dog at 10 mg/kg, po; assay type: ADME, organism-based, Canis lupus familiaris; design: dose 10 mg/kg, route oral; conditions: in vivo
Rattus norvegicus [14] = test: AUC in rat at 10 mg/kg, po; assay type: ADME, organism-based, Plasma; design: dose 10 mg/kg, route oral; conditions: in vivo
[15] = Half life in rat at 10 mg/kg, po; assay type: ADME, organism-based; design: dose 10 mg/kg, route oral; conditions: in vivo
[16] = Plasma clearance in rat at 10 mg/kg, po; assay type: ADME, organism-based; design: dose 10 mg/kg, route oral
[17] = Half life in dog at 10 mg/kg, po; assay type: ADME, organism-based, Canis lupus familiaris; design: dose 10 mg/kg, route oral; conditions: in vivo
Canis familiaris = test: AUC in dog at 10 mg/kg, po; assay type: ADME, organism-based, Canis lupus familiaris, Plasma; design: dose 10 mg/kg, route oral; conditions: in vivo
[18] = Oral bioavailability in dog at 10 mg/kg, po; assay type: ADME, organism-based, Canis lupus familiaris; conditions: in vivo
[19] = Oral bioavailability in rat at 10 mg/kg, po; assay type: ADME, organism-based; conditions: in vivo
[20] = Cmax in rat at 10 mg/kg, po; assay type: ADME, organism-based; design: dose 10 mg/kg, route oral; conditions: in vivo

Cytochrome P450 3A4, sequence (P08684 whole entry): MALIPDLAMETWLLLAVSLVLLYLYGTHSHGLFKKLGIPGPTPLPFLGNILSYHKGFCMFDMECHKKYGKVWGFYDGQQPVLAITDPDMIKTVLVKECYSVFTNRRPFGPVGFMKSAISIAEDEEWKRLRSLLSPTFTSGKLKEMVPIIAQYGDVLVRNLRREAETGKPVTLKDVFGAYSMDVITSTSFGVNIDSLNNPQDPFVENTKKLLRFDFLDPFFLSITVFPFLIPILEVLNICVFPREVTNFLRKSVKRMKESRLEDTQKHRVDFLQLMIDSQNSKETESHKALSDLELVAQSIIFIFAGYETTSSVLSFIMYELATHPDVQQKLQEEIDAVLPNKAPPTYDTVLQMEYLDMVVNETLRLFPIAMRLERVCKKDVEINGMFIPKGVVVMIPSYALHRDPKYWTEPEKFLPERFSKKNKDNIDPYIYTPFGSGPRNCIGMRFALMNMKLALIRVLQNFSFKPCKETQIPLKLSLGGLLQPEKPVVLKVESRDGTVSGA
Cytochrome P450 2D6, sequence (P10635 whole entry): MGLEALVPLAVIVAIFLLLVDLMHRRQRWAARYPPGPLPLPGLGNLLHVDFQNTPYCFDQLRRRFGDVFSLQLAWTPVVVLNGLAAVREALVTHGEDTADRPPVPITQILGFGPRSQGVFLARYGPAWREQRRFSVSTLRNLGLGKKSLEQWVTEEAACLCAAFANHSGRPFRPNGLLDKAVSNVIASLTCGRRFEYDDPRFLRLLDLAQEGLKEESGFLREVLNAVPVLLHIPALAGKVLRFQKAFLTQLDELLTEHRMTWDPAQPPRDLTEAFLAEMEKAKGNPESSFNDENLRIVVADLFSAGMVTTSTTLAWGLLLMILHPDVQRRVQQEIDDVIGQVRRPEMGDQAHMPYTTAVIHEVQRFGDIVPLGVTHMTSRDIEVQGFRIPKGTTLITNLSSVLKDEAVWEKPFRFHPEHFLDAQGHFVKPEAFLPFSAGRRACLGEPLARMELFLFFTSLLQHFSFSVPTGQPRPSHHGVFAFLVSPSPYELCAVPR
Cytochrome P450 2C9, sequence (P11712 whole entry): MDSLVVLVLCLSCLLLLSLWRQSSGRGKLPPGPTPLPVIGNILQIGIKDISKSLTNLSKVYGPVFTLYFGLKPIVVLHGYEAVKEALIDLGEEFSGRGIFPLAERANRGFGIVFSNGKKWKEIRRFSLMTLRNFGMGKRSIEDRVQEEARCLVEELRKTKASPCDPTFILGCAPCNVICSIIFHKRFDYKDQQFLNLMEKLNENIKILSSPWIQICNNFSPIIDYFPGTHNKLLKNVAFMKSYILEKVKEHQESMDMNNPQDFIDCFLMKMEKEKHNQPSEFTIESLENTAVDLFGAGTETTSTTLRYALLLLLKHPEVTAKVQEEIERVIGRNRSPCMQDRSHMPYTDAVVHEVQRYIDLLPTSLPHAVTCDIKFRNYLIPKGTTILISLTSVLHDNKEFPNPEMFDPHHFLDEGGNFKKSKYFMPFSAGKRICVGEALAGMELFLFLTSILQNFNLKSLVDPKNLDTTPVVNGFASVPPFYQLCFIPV

Row | SMILES | IC95 [1] [nM] | IC95 [2] [nM] | IC95 [3] [nM] | IC95 [4] [nM] | IC95 [5] [nM] | IC50 [6] [nM] | other results
1 | CC(C)(c1ncc(-c2ccc(Cl)cc2)s1)N1CCN(C[C@@H](O)C[C@@H](Cc2cc3cnccc3s2)C(=O)N[C@H]2c3ccccc3OC[C@H]2O)[C@H](C(=O)NCC(F)(F)F)C1 | < 7.8 | 31.3 | < 7.8 | < 7.8 | < 7.8 | 0.04 | 
2 | Cc1ccncc1-c1ccc(C[C@H](C[C@H](O)CN2CCN(C(C)(C)c3ncc(-c4ccc(Cl)cc4)s3)C[C@H]2C(=O)NCC(F)(F)F)C(=O)N[C@H]2c3ccccc3OC[C@H]2O)o1 | 15.6 | 250 | 31.3 | 31.3 | 15.6 | 0.03 | 
3 | Cc1ccncc1-c1ccc(C[C@H](C[C@H](O)CN2CCN(Cc3ccc(-c4ccc(Cl)cc4)o3)C[C@H]2C(=O)NCC(F)(F)F)C(=O)N[C@H]2c3ccccc3OC[C@H]2O)o1 | 15.6 | 125 | 62.5 | 31.3 | < 7.8 | 0.08 | 
4 | CC(C)(c1ncc(-c2ccc(Cl)cc2)o1)N1CCN(C[C@@H](O)C[C@@H](Cc2cc3cnccc3s2)C(=O)N[C@H]2c3ccccc3OC[C@H]2O)[C@H](C(=O)NCC(F)(F)F)C1 | < 7.8 | < 7.8 | < 7.8 | < 7.8 | < 7.8 | 0.02 | Cmax [7]: 52 nM; IC50 (Cytochrome P450 3A4): < 1000 nM; CL/F [8]: 111 mL/min/kg; AUC (Rattus norvegicus [9]): 0.36 uMh; IC50 (Cytochrome P450 2C9): < 1000 nM; bioavailability [10]: 7.3%; half-life [11]: 48 min; IC50 (Cytochrome P450 2D6): < 1000 nM
5 | O=C(N[C@H]1c2ccccc2OC[C@H]1O)[C@H](Cc1cc2cnccc2s1)C[C@H](O)CN1CCN(Cc2ccc(-c3ccc(Cl)cc3)s2)C[C@H]1C(=O)NCC(F)(F)F | 15.6 | 125 | 31.3 | 15.6 | 31.3 | 0.05 | 
6 | CC(C)(c1ncc(-c2ccc(Cl)cc2)o1)N1CCN(C[C@@H](O)C[C@@H](Cc2cc3ccncc3s2)C(=O)N[C@H]2c3ccccc3OC[C@H]2O)[C@H](C(=O)NCC(F)(F)F)C1 | < 7.8 | < 7.8 | < 7.8 | < 7.8 | < 7.8 | < 0.02 | 
7 | Cc1ccncc1-c1ccc(C[C@H](C[C@H](O)CN2CCN(Cc3csc(-c4ccc(F)cc4)n3)C[C@H]2C(=O)NCC(F)(F)F)C(=O)N[C@H]2c3ccccc3OC[C@H]2O)o1 | < 7.8 | 62.5 | 125 | 15.6 | 125 | 0.11 | 
8 | Cc1ccncc1-c1ccc(C[C@H](C[C@H](O)CN2CCN(Cc3ccc(-c4ccc(Cl)cc4)s3)C[C@H]2C(=O)NCC(F)(F)F)C(=O)N[C@H]2c3ccccc3OC[C@H]2O)o1 | < 7.8 | 62.5 | 62.5 | 15.6 | 125 | 0.04 | 
9 | O=C(N[C@H]1c2ccccc2OC[C@H]1O)[C@H](Cc1cc2ccncc2o1)C[C@H](O)CN1CCN(Cc2ccc(-c3ccc(Cl)cc3)o2)C[C@H]1C(=O)NCC(F)(F)F | < 7.8 | 62.5 | 15.6 | 31.3 | < 7.8 | 0.05 | 
10 | CC(C)(C)NC(=O)[C@@H]1CN(Cc2cccnc2)CCN1C[C@@H](O)C[C@@H](Cc1ccccc1)C(=O)N[C@H]1c2ccccc2C[C@H]1O | 50 | > 1000 | > 1000 | 400 | > 1000 |  | 
11 | CC(C)(c1ncc(-c2ccc(Cl)cc2)o1)N1CCN(C[C@@H](O)C[C@@H](Cc2cc3c(Cl)cncc3s2)C(=O)N[C@H]2c3ccccc3OC[C@H]2O)[C@H](C(=O)NCC(F)(F)F)C1 | < 7.8 | 15.6 | < 7.8 | < 7.8 | < 7.8 | < 0.02 | 
12 | O=C(N[C@H]1c2ccccc2OC[C@H]1O)[C@H](Cc1cc2cnccc2s1)C[C@H](O)CN1CCN(Cc2ccc(-c3ccc(Cl)cc3)o2)C[C@H]1C(=O)NCC(F)(F)F | 15.6 | 125 | 31.3 | 15.6 | < 7.8 | 0.03 | 
13 | O=C(N[C@H]1c2ccccc2OC[C@H]1O)[C@H](Cc1cc2cnccc2s1)C[C@H](O)CN1CCN(Cc2csc(-c3ccc(C(F)(F)F)cc3)n2)C[C@H]1C(=O)NCC(F)(F)F | 26 | 375 | 93.8 | 125 | 31.3 | 0.07 | 
14 | Cc1ccncc1-c1ccc(C[C@H](C[C@H](O)CN2CCN(Cc3ncc(-c4ccc(Cl)cc4)o3)C[C@H]2C(=O)NCC(F)(F)F)C(=O)N[C@H]2c3ccccc3OC[C@H]2O)o1 | < 7.8 | 125 | 62.5 | 62.5 | 15.6 | 0.03 | 
15 | CC(C)(c1ncc(-c2ccc(Cl)cc2)o1)N1CCN(C[C@@H](O)C[C@@H](Cc2cc3ccncc3o2)C(=O)N[C@H]2c3ccccc3OC[C@H]2O)[C@H](C(=O)NCC(F)(F)F)C1 | < 7.8 | 31 | < 7.8 | < 7.8 | < 7.8 | 0.02 | IC50 (Cytochrome P450 3A4): < 1000 nM; CL/F [12]: 23 mL/min/kg; Cmax [13]: 2100 nM; AUC (Rattus norvegicus [14]): 0.29 uMh; half-life [15]: 48 min; IC50 (Cytochrome P450 2C9): < 1000 nM; CL/F [16]: 98 mL/min/kg; half-life [17]: 60 min; AUC (Canis familiaris): 0.39 uMh; bioavailability [18]: 42%; bioavailability [19]: 14%; Cmax [20]: 180 nM; IC50 (Cytochrome P450 2D6): < 1000 nM
